The values that follow come from patent US8802664B2 (Bioproject, priority 2010, dated 2014).

SMILES strings stand for the structures.

This assay deals with T1, human H4 receptor (Homo sapiens, UniProt Q9H3N8).
T1 construct: expressed in transfected cells
As to the kind of experiment: [3H]Histamine binding on membranes of CHO cells stably expressing human H4 receptor. As to the method:
CHO cells stably expressing human H4 receptor were grown until sub-confluence and centrifuged at 300 g 15 minutes at 4° C. Pellets were resuspended in buffer I Tris-HCl 50 mM, MgCl2 10 mM, NaCl 140 mM, pH=7.4 supplemented by a 1/50 dilution of a mix of protease inhibitors. The obtained suspension is stirred gently and submitted to a […] exerted through a syringe. The cell lysate is then centrifuged at 300 g 15 minutes at 4° C. in order to eliminate nucleus and cell scraps. The obtained supernatant was then centrifuged at 48000 g for 30 minutes at 4° C. The final pellet is resuspended in buffer I with a potter homogenizer. Aliquots were frozen in liquid nitrogen and stored until use at −80° C. Protein content is measured by the Bradford method.
Defreezed membranes were diluted at a final concentration of 20 μg/180 μL/well in a binding buffer containing 50 mM Tris/HCl, 0.5 mM EDTA, pH=7.4 and distributed in 96 well polystyrene microplate. [^3H] […] Non specific binding was estimated in the presence of 10 μM BP1.2404 (JNJ 7777120). The reaction was terminated by filtration through GF/B filters pre-soaked 2 hours at 4° C. in […]. Filters were rinsed 3 times with 250 μl of ice cold incubation binding buffer.
The filter-bound radioactivity was measured in a liquid scintillation counter Microbeta TRILUX® with 50 μl of scintillation fluid.
The hH4 binding investigated by use of [^3H]

T1 sequence (Q9H3N8 whole entry): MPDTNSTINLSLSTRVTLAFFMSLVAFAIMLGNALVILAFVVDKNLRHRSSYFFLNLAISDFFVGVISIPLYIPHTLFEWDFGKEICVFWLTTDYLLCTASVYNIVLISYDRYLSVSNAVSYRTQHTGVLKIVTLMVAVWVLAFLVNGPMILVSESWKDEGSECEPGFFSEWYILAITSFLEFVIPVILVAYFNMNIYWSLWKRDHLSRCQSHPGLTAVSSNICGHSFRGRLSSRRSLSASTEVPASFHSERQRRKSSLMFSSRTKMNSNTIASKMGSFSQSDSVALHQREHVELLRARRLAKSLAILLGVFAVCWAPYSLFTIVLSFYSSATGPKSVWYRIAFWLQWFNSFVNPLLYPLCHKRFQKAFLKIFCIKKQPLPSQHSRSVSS

For the molecule `CC(O)COCC#Cc1cccc(C(OC2CCN(C)CC2)c2nc3ccccc3s2)c1` (stereo not drawn) [Example 276, 1-(3-{3-[benzothiazol-2-yl(1-methylpiperidin-4-yloxy)methyl]phenyl}prop-2-ynyloxy)-propan-2-ol], the Ki or IC50 activity class was less than 0.03 µM. The same measure, in the same setting: as for `CN1CCC(OC(c2ccc(OC(F)(F)F)cc2)c2nc3ccccc3s2)CC1` (stereo not drawn) [Example 24, 2-[(1-methylpiperidin-4-yloxy)(4-trifluoromethoxyphenyl)methyl]benzothiazole], the figure is less than 1 µM; as for `CC(=O)CCCOc1cccc(C(OC2CCN(C)CC2)c2nc3ccccc3s2)c1` (stereo not drawn) [Example 186, 5-{3-[benzothiazol-2-yl(1-methylpiperidin-4-yloxy)methyl]phenoxy}pentan-2-one], less than 1 µM; as for `CN1CCC(OC(c2cccc(OCCCCn3cncn3)c2)c2nc3ccccc3s2)CC1` (stereo not drawn) [Example 316, 2-{(1-methylpiperidin-4-yloxy)[3-(4-[1,2,4]triazol-1-yl-butoxy)phenyl]methyl}benzothiazole], less than 0.3 µM.

Molecule `CN1CCC(OC(c2cccc(SC(C)(C)CCO)c2)c2nc3ccccc3s2)CC1` (stereo not drawn) [Example 242, 3-{3-[benzothiazol-2-yl(1-methylpiperidin-4-yloxy)methyl]phenylsulfanyl}-3-methyl-butan-1-ol] gave a Ki or IC50 activity class of less than 1 µM. Turning to `CN1CCC(OC(c2ccc3c(c2)OCO3)c2nc3ccccc3[nH]2)CC1` (stereo not drawn) [Example 297, 2-[benzo[1,3]dioxol-5-yl(1-methylpiperidin-4-yloxy)methyl]-1H-benzimidazole], the Ki or IC50 activity class is less than 0.3 µM. In turn, `CN1CCC(OC(c2cccc(OCCNCC(=O)OC(C)(C)C)c2)c2nc3ccccc3s2)CC1` (stereo not drawn) [Example 370, (2-{3-[benzothiazol-2-yl(1-methylpiperidin-4-yloxy)methyl]phenoxy}ethylamino)acetic acid tert-butyl ester] displayed a Ki or IC50 activity class of less than 1 µM. As for `CN1CCC(OC(c2nc3ccccc3[nH]2)c2cc(OC(F)(F)F)ccc2F)CC1` (single isomer, unassigned) [Example 435, 2-[(2-fluoro-5-trifluoromethoxyphenyl)(1-methylpiperidin-4-yloxy)methyl]-1H-benzimidazole], the Ki or IC50 activity class is less than 0.03 µM. As to `CN1CCC(OC(c2cccc(OCCO)c2)c2nc3ccccc3s2)CC1` (stereo not drawn) [Example 244, 2-{3-[benzothiazol-2-yl(1-methylpiperidin-4-yloxy)methyl]phenoxy}ethanol], the Ki or IC50 activity class was less than 0.3 µM. Regarding `CN1CCC(OC(c2cccc(C#CCCCN)c2)c2nc3ccccc3[nH]2)CC1` (stereo not drawn) [Example 294, 5-{3-[(1H-benzimidazol-2-yl)(1-methylpiperidin-4-yloxy)methyl]phenyl}pent-4-ynylamine], the Ki or IC50 activity class is less than 0.03 µM. `Cc1ccc(C(OC2CCN(C)CC2)c2nc3ccccc3[nH]2)cc1` (single isomer, unassigned) [Example 252, 2-[(1-methylpiperidin-4-yloxy)-p-tolylmethyl]-1H-benzimidazole] had a Ki or IC50 activity class of less than 1 µM. With `CCOC(=O)n1c(C(OC2CCN(C)CC2)c2cc(OC(F)(F)F)ccc2F)nc2ccccc21` (stereo not drawn) [Example 553], the Ki or IC50 activity class is less than 1 µM. Regarding `CN1CCC(OC(c2cccc(CCc3cn(C)cn3)c2)c2nc3ccccc3s2)CC1` (stereo not drawn) [Example 306, 2-[{3-[2-(1-methyl-1H-imidazol-4-yl)ethyl]phenyl}(1-methylpiperidin-4-yloxy)methyl]benzothiazole], the Ki or IC50 activity class is less than 0.3 µM. Molecule `CN1CCC(OC(c2cccc(C#CCCCn3ccnc3)c2)c2nc3ccccc3[nH]2)CC1` (stereo not drawn) [Example 409, 2-[[3-(5-imidazol-1-ylpent-1-ynyl)phenyl](1-methylpiperidin-4-yloxy)methyl]-1H-benzimidazole] returned a Ki or IC50 activity class of less than 0.3 µM.

`CN1CCC(OC(c2cccc(C3=CCN(C(=N)N)CC3)c2)c2nc3ccccc3[nH]2)CC1` (stereo not drawn) [Example 353, 4-{3-[(1H-benzimidazol-2-yl)(1-methylpiperidin-4-yloxy)methyl]phenyl}-3,6-dihydro-2H-pyridine-1-carboxamidine] came in with a Ki or IC50 activity class of less than 0.3 µM. Same read-out and setting: as for `COc1cc(F)cc(C(OC2CCN(C)CC2)c2nc3ccccc3s2)c1` (stereo not drawn) [Example 40, 2-[(3-fluoro-5-methoxyphenyl)(1-methylpiperidin-4-yloxy)methyl]benzothiazole], the figure is less than 0.03 µM; as for `COC(=O)CC1(CSc2cccc(C(OC3CCN(C)CC3)c3nc4ccccc4s3)c2)CC1` (stereo not drawn) [Example 239, (1-{3-[benzothiazol-2-yl(1-methylpiperidin-4-yloxy)methyl]phenylsulfanylmethyl}-cyclopropyl)acetic acid methyl ester], less than 1 µM. In turn, `C=CCCCOc1cccc(C(NC2CCN(C)CC2)c2nc3ccccc3[nH]2)c1` (stereo not drawn) [Example 135, [(1H-benzimidazol-2-yl)(3-pent-4-enyloxyphenyl)methyl](1-methylpiperidin-4-yl)amine] came in with a Ki or IC50 activity class of less than 0.3 µM. Still for that read-out and setting: as for `CC(=O)NC(=N)NCCSc1cccc(C(OC2CCN(C)CC2)c2nc3ccccc3[nH]2)c1` (stereo not drawn) [Example 401, N-acetyl-N′-(2-{3-[(1H-benzimidazol-2-yl)(1-methylpiperidin-4-yloxy)methyl]phenylsulfanyl}ethyl)guanidine], the figure is less than 0.3 µM; as for `CN1CCC(OC(c2cccc(OC3CCNC3)c2)c2nc3ccccc3s2)CC1` (stereo not drawn) [Example 382, 2-{(1-methylpiperidin-4-yloxy)[3-(pyrrolidin-3-yloxy)phenyl]methyl}benzothiazole], less than 0.03 µM. `CN1CCC(OC(c2cccc(-c3ccc(Cl)c(Cl)c3)c2)c2nc3ccccc3[nH]2)CC1` (stereo not drawn) [Example 122, 2-[(3′,4′-dichlorobiphenyl-3-yl)(1-methylpiperidin-4-yloxy)methyl]-1H-benzimidazole]: the Ki or IC50 activity class is less than 0.3 µM.

In turn, `CN1CCC(OC(c2cccc(C=CC(=O)OC(C)(C)C)c2)c2nc3ccccc3s2)CC1` (stereo not drawn) [Example 205, 3-{3-[benzothiazol-2-yl(1-methylpiperidin-4-yloxy)methyl]phenyl}acrylic acid tert-butyl ester] yielded a Ki or IC50 activity class of less than 1 µM.

Take `Cc1ccc(C(NC2CCN(C)CC2)c2nc3ccccc3s2)cc1` (stereo not drawn) [Example 36, (benzothiazol-2-yl-p-tolylmethyl)(1-methylpiperidin-4-yl)amine]: the Ki or IC50 activity class is less than 0.3 µM. On the same count and under the same terms, as for `CN1CCC(OC(c2cccc(OCc3cccc([N+](=O)[O-])c3)c2)c2nc3ccccc3s2)CC1` (stereo not drawn) [Example 196, 2-{(1-methylpiperidin-4-yloxy)[3-(3-nitro-benzyloxy)phenyl]methyl}benzothiazole], the figure is less than 0.03 µM; as for `CN1CCC(OC(c2cccc(OCc3ccccc3)c2)c2nc3ccccc3s2)CC1` (stereo not drawn) [Example 45, 2-[(3-benzyloxyphenyl)(1-methylpiperidin-4-yloxy)methyl]benzothiazole], less than 0.03 µM; as for `CCCCCOc1cccc(C(NC2CCN(C)CC2)c2nc3ccccc3[nH]2)c1` (stereo not drawn) [Example 95, [(1H-benzimidazol-2-yl)(3-pentyloxyphenyl)methyl](1-methylpiperidin-4-yl)amine], less than 0.03 µM. Same read-out and setting: as for `CN1CCC(OC(c2cccc(C#CCCNC(=N)N)c2)c2nc3ccccc3[nH]2)CC1` (stereo not drawn) [Example 393, N-(4-{3-[(1H-benzimidazol-2-yl)(1-methylpiperidin-4-yloxy)methyl]phenyl}but-3-ynyl)guanidine], the figure is less than 0.03 µM; as for `CN1CCC(OC(c2cccc(SCCCF)c2)c2nc3ccccc3[nH]2)CC1` (stereo not drawn) [Example 508], less than 0.03 µM. In turn, `CCCOc1ccc(F)c(C(OC2CCN(C)CC2)c2nc3ccccc3[nH]2)c1` (stereo not drawn) [Example 519] came in with a Ki or IC50 activity class of less than 0.03 µM. `CN1CCC(OC(c2cccc(SCCCCO)c2)c2nc3ccccc3s2)CC1` (stereo not drawn) [Example 256, 4-{3-[benzothiazol-2-yl(1-methylpiperidin-4-yloxy)methyl]phenylsulfanyl}butan-1-ol] displayed a Ki or IC50 activity class of less than 0.03 µM.

As to `CN1CCC(OC(c2cccc(SCC3(CCO)CC3)c2)c2nc3ccccc3[nH]2)CC1` (stereo not drawn) [Example 257], under “read-out: Activity (Ki or IC50)”, the Ki (usually a measure of affinity in units of concentration, obtained from inhibition or displacement) was less than 1 µM. Take `CN1CCC(OC(c2ccc3ccccc3c2)c2nc3ccccc3s2)CC1` (stereo not drawn) [Example 18, 2-[(1-methylpiperidin-4-yloxy)naphthalen-2-ylmethyl]benzothiazole]: the Ki or IC50 activity class was less than 0.3 µM. The same measure, in the same setting: as for `Cc1cc(C(OC2CCN(C)CC2)c2nc3ccccc3s2)ccc1F` (stereo not drawn) [Example 34, 2-[(4-fluoro-3-methylphenyl)(1-methylpiperidin-4-yloxy)methyl]benzothiazole], the figure is less than 0.3 µM.

Turning to `CN1CCC(OC(c2cccc(SCC(=O)NN)c2)c2nc3ccccc3s2)CC1` (stereo not drawn) [Example 264, {3-[benzothiazol-2-yl(1-methylpiperidin-4-yloxy)methyl]phenylsulfanyl}acetic acid hydrazide], the Ki or IC50 activity class is less than 0.3 µM.

The molecule `CCc1cccc(C(OC2CCN(C)CC2)c2nc3ccccc3s2)c1` (stereo not drawn) [Example 152, 2-[(3-ethylphenyl)(1-methylpiperidin-4-yloxy)methyl]benzothiazole] had a Ki or IC50 activity class of less than 0.03 µM. As for `CN1CCC(OC(c2cccc(F)c2)c2nc3ccccc3s2)CC1` (stereo not drawn) [Example 5], the Ki or IC50 activity class is less than 0.3 µM.
